According to patent publication US20250136614A1, “2,7-SUBSTITUTED PYRROLO[2,1-F][1,2,4]TRIAZINE COMPOUND HAVING PROTEIN KINASE INHIBITORY ACTIVITY” (Magicbullettherapeutics Co., Ltd., priority 2021, published 2025):

How the values were obtained:
Type in all cases: cell-based
H1975 = assay: Cancer cell growth inhibition (CellTiter-Glo, 72 hours); conditions: Homo sapiens, NCI-H1975, H1975 cells, read-out: GI50s (μM) H1975
Protocol: (§1) Seeding 3000 cells per well in a 96-well plate. After cell stabilization, treat the cells with compounds diluted in 0.5% DMSO at a ⅓ serial dilution and culture for 72 hours. Following treatment with CellTiter-Glo, luminescence is produced only in the presence of ATP, as luciferase degrades luciferin. Luminescence values were measured using Envision (PerkinElmer). Based on the measured luminescence values, the concentration of compounds causing cell death was calculated to determine the GI50 value.
(§2) The activity values were categorized into three levels • A: IC50<1 μM • B: 1 μM≤IC50<10 μM, • C: IC50≥10 μM

H358 = assay: as above; conditions: Homo sapiens, NCI-H358, H358 cells, read-out: GI50s (μM) H358
Protocol: as §1, §2

H23 = assay: as above; conditions: Homo sapiens, NCI-H23, H23 cells, read-out: GI50s (μM) H23
Protocol: as §1, §2

colo205 = assay: as above; conditions: Homo sapiens, COLO 205, colo205 cells, read-out: GI50s (μM) colo205
Protocol: as §1, §2

MDA-MB-231 = assay: as above; conditions: Homo sapiens, MDA-MB-231 cells, read-out: GI50s (μM) MDA-MB-231
Protocol: as §1, §2

HCT116 = assay: as above; conditions: Homo sapiens, HCT-116, HCT116 cells, read-out: GI50s (μM) HCT116
Protocol: as §1, §2

Ba/F3 FLT3 (ITD/D835Y) = target: T1, Ba/F3 FLT3 (ITD/D835Y) (Homo sapiens, UniProt P36888, D835Y, cells depend on it, form not given); assay: Ba/F3 cell growth inhibition (CellTiter-Glo, 72 hours); conditions: read-out: Ba/F3 GI50s (μM) FLT3 (ITD/D835Y)
T1 sequence (P36888 1-993 D835Y): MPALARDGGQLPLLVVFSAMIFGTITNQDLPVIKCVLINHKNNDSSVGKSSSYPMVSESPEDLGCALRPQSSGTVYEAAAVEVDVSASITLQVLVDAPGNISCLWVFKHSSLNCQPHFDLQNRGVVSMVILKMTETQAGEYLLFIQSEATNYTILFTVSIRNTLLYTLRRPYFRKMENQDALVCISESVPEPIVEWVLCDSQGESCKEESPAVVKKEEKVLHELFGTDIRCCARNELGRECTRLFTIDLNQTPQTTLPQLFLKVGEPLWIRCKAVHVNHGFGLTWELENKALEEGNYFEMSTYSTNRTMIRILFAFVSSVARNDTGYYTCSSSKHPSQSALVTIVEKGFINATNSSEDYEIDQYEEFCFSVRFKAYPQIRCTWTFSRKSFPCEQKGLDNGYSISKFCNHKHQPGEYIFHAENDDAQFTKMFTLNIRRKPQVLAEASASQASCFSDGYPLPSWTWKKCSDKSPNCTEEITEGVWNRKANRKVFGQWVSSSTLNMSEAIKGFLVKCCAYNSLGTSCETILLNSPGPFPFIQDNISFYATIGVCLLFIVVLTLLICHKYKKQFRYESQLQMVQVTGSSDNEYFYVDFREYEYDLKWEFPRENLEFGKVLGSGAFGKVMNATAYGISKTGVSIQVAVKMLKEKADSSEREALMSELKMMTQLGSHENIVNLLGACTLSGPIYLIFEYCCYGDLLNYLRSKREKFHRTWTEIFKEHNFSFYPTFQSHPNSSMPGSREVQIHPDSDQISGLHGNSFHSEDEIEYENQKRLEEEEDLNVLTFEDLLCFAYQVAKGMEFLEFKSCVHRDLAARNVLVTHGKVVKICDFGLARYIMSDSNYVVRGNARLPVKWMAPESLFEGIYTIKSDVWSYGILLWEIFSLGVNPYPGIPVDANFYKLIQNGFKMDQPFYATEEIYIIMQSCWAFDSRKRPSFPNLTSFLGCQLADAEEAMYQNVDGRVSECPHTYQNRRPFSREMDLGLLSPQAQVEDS
Protocol: as §1, with “[…]” for “0.5%”
The activity values were categorized into three levels. • A: IC50<1 μM • B: 1 μM≤IC50<10 μM, • C: IC50≥10 μM

| IC50 (H1975) | IC50 (H358) | IC50 (H23) | IC50 (colo205) | IC50 (MDA-MB-231) | IC50 (HCT116) | GI50 (Ba/F3 FLT3 (ITD/D835Y)) | SMILES |
| --- | --- | --- | --- | --- | --- | --- | --- |
| ≥ 10 µM | ≥ 10 µM | ≥ 10 µM | ≥ 10 µM | ≥ 10 µM | ≥ 10 µM | 1 to 10 µM | CS(=O)(=O)Nc1cccc(-c2ccc3cnc(Nc4ccc(N5CCN(CCCCCCCOc6cccc7c6C(=O)N(C6CCC(=O)NC6=O)C7=O)CC5)cc4)nn23)c1 (stereo not shown) [Example 41] |
| ≥ 10 µM | ≥ 10 µM | ≥ 10 µM | ≥ 10 µM | ≥ 10 µM | ≥ 10 µM | 1 to 10 µM | O=C1CCCCCCOc2ccc(cc2F)-c2ccc3cnc(nn23)Nc2ccc(cc2)OCCCN1 [Example 20, (Z)-13-fluoro-5,17-dioxa-3,9-diaza-2(7,2)-pyrrolo[2,1-f][1,2,4]triazina-1,4(1,4)-dibenzenacycloheptadecaphan-10-one] |
| 1 to 10 µM | 1 to 10 µM | 1 to 10 µM | 1 to 10 µM | ≥ 10 µM | 1 to 10 µM | 1 to 10 µM | O=C1CCCCCCOc2ccc(cc2)-c2ccc3cnc(nn23)Nc2ccc(cc2)OCCCN1 [Example 29, (Z)-5,17-dioxa-3,9-diaza-2(7,2)-pyrrolo[2,1-f][1,2,4]triazina-1,4(1,4)-dibenzenacycloheptadecaphan-10-one] |
| 1 to 10 µM | 1 to 10 µM | 1 to 10 µM | ≥ 10 µM | ≥ 10 µM | 1 to 10 µM | < 1 µM | Cc1ncsc1-c1ccc(CNC(=O)[C@@H]2C[C@@H](O)CN2C(=O)[C@@H](NC(=O)COCCN2CCN(c3ccc(Nc4ncc5ccc(-c6cccc(NS(C)(=O)=O)c6)n5n4)cc3)CC2)C(C)(C)C)cc1 [Example 83, (2S,4R)-1-((S)-3,3-dimethyl-2-(2-(2-(4-(4-((7-(3-(methanesulfonamido)phenyl)pyrrolo[2,1-f][1,2,4]triazin-2-yl)amino)phenyl)piperazin-1-yl)ethoxy)acetaamino)butanoyl)-4-hydroxy-N-(4-(4-methylthiazol-5-yl)benzyl)pyrrolidin-2-carboxamide] |
| 1 to 10 µM | 1 to 10 µM | < 1 µM | 1 to 10 µM | ≥ 10 µM | 1 to 10 µM | < 1 µM | O=C1CCCCCCOc2ccc(cc2)-c2ccc3cnc(nn23)Nc2ccc(cc2)N2CCN(CCCN1)CC2 [Example 23, (Z)-17-oxa-3,9-diaza-2(7,2)-pyrrolo[2,1-f][1,2,4]triazina-5(1,4)-piperazina-1,4(1,4)-dibenzenacycloheptadecaphan-10-one] |
| 1 to 10 µM | 1 to 10 µM | < 1 µM | 1 to 10 µM | ≥ 10 µM | < 1 µM | < 1 µM | O=C1CCCCOc2ccc(cc2)-c2ccc3cnc(nn23)Nc2cnn(c2)CCCN1 [Example 36, (2^1Z,4^4E)-4^1H-14-oxa-3,8-diaza-2(7,2)-pyrrolo[2,1-f][1,2,4]triazina-4(4,1)-pyrazola-1(1,4)-benzenacyclotetradecaphan-9-one] |
| 1 to 10 µM | 1 to 10 µM | 1 to 10 µM | 1 to 10 µM | 1 to 10 µM | 1 to 10 µM | < 1 µM | c1cc2ccc1Nc1ncc3ccc(n3n1)-c1ccc(cc1)OCCNCCCO2 [Example 30, (Z)-5,12-dioxa-3,9-diaza-2(7,2)-pyrrolo[2,1-f][1,2,4]triazina-1,4(1,4)-dibenzenacyclododecaphane] |
| ≥ 10 µM | ≥ 10 µM | ≥ 10 µM | ≥ 10 µM | ≥ 10 µM | 1 to 10 µM | < 1 µM | CS(=O)(=O)Nc1cccc(-c2ccc3cnc(Nc4ccc(N5CCN(CCCOc6cccc7c6C(=O)N(C6CCC(=O)NC6=O)C7=O)CC5)cc4)nn23)c1 (stereo not shown) [Example 40] |
| ≥ 10 µM | 1 to 10 µM | 1 to 10 µM | ≥ 10 µM | 1 to 10 µM | ≥ 10 µM | < 1 µM | O=C1CCCCCCOc2ccc(cc2)-c2ccc3cnc(nn23)Nc2cnn(c2)C2CCN(CCCN1)CC2 [Example 27, (2^1Z,4^4E)-4^1H-17-oxa-3,9-diaza-2(7,2)-pyrrolo[2,1-f1][1,2,4]triazina-5(4,1)-piperidina-4(4,1)-pyrazola-1(1,4)-benzenacycloheptadecaphan-10-one] |
| 1 to 10 µM | ≥ 10 µM | 1 to 10 µM | ≥ 10 µM | ≥ 10 µM | 1 to 10 µM | 1 to 10 µM | O=C1CCCCCCn2cc(cn2)-c2ccc3cnc(nn23)Nc2ccc(cc2)OCCCN1 [Example 17, (1^4Z,2^1Z)-1′H-5-oxa-3,9-diaza-2(7,2)-pyrrolo[2,1-f][1,2,4]triazina-1(4,1)-pyrazola-4(1,4)-benzenacyclohexadecaphan-10-one] |
| ≥ 10 µM | ≥ 10 µM | ≥ 10 µM | ≥ 10 µM | ≥ 10 µM | ≥ 10 µM | ≥ 10 µM | CS(=O)(=O)Nc1cccc(-c2ccc3cnc(Nc4ccc(N5CCN(CCCCCOc6cccc7c6C(=O)N(C6CCC(=O)NC6=O)C7=O)CC5)cc4)nn23)c1 (stereo not shown) [Example 39] |
| < 1 µM | < 1 µM | < 1 µM | < 1 µM | ≥ 10 µM | < 1 µM | < 1 µM | O=C1CCCCOc2ccc(cc2)-c2ccc3cnc(nn23)Nc2cnn(c2)C2CCN(CCCN1)CC2 [Example 26, (2^1Z,4^4E)-4^1H-15-oxa-3,9-diaza-2(7,2)-pyrrolo[2,1-f1][1,2,4]triazina-5(4,1)-piperidina-4(4,1)-pyrazola-1(1,4)-benzenacyclopentadecaphan-10-one] |
| ≥ 10 µM | ≥ 10 µM | ≥ 10 µM | ≥ 10 µM | ≥ 10 µM | ≥ 10 µM | 1 to 10 µM | CS(=O)(=O)Nc1cccc(-c2ccc3cnc(Nc4ccc(N5CCN(CCCCCCCCCCCOc6cccc7c6C(=O)N(C6CCC(=O)NC6=O)C7=O)CC5)cc4)nn23)c1 (stereo not shown) [Example 42] |
| ≥ 10 µM | ≥ 10 µM | ≥ 10 µM | ≥ 10 µM | 1 to 10 µM | ≥ 10 µM | 1 to 10 µM | COc1cc2ccc1Nc1ncc3ccc(n3n1)-c1ccc(cc1)OCCOCC(=O)NCCCO2 [Example 34, (Z)-42-methoxy-5,12,15-trioxa-3,9-diaza-2(7,2)-pyrrolo[2,1-f][1,2,4]triazina-1,4(1,4)-dibenzenacyclopentadecaphan-10-one] |

| SMILES | IC50 (H1975) | IC50 (H358) | IC50 (H23) | IC50 (colo205) | IC50 (MDA-MB-231) | IC50 (HCT116) | GI50 (Ba/F3 FLT3 (ITD/D835Y)) |
| --- | --- | --- | --- | --- | --- | --- | --- |
| CN1CCCn2cc(cn2)Nc2ncc3ccc(n3n2)-c2ccc(cc2)OCC1 [Example 2] | 1 to 10 µM | < 1 µM | < 1 µM | 1 to 10 µM | ≥ 10 µM | < 1 µM | < 1 µM |
| COc1cccc(NC(=O)N2CCCn3cc(cn3)Nc3ncc4ccc(n4n3)-c3ccc(cc3)OCC2)c1 [Example 7, (2^1Z,4^4E)-N-(3-methoxyphenyl)-4^1H-11-oxa-3,8-diaza-2(7,2)-pyrrolo[2,1-f][1,2,4]triazina-4(4,1)-pyrazola-1(1,4)-benzenecycloundecaphane-8-carboxamide] | 1 to 10 µM | 1 to 10 µM | 1 to 10 µM | ≥ 10 µM | ≥ 10 µM | 1 to 10 µM | < 1 µM |
